Experimental data reported in publication PMC3524753, “SU11652 Inhibits tyrosine kinase activity of FLT3 and growth of MV-4-11 cells” (Journal of Hematology & Oncology, 2012).
Changes are numbered by the printed parent chain.

How the values were obtained:
Experiment in all cases: in vitro kinase assay with GST-FLT3S substrate, anti-phosphotyrosine immunoblot
Type in all cases: biochemical
[1] = target: T1, FLT3 (FMS-like tyrosine kinase 3) (Homo sapiens, UniProt P36888, D835Y)
T1 construct: catalytic domain of FLT3 D835Y
T1 sequence (P36888 564-993 D835Y limits assumed): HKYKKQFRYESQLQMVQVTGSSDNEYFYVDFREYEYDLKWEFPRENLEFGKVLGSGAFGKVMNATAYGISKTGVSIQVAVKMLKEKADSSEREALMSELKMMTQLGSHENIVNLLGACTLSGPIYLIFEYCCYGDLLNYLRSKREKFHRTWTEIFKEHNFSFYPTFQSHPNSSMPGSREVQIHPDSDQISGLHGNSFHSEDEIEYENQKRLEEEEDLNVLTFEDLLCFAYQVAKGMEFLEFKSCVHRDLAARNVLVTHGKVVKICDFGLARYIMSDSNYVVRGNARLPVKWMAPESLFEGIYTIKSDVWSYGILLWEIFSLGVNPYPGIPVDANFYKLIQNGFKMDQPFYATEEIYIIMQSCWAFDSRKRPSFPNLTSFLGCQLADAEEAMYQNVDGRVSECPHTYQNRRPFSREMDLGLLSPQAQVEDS

[2] = target: T2, FLT3 (FMS-like tyrosine kinase 3) (Homo sapiens, UniProt P36888, D835H)
T2 construct: catalytic domain of FLT3 D835H
T2 sequence (P36888 564-993 D835H limits assumed): T1 sequence (P36888 564-993 D835Y limits assumed) with Y272H

[3] = target: T3, FLT3 (FMS-like tyrosine kinase 3) (Homo sapiens, UniProt P36888)
T3 construct: catalytic domain of wild type FLT3
T3 sequence (P36888 564-993 limits assumed): T1 sequence (P36888 564-993 D835Y limits assumed) with Y272D

What does the source list for CCN(CC)CCNC(=O)c1c(C)[nH]c(/C=C2\C(=O)Nc3ccc(Cl)cc32)c1C [SU11652]?
IC50 [1]: 16 nM; IC50 [2]: 32 nM; IC50 [3]: ~1.5 nM
